We go through 2 compounds from US20120270935A1, “FORMULATIONS” (priority 2009, published 2012).

Values after ≈ are worked out from the molar mass of the structure shown. Where two headings read alike, the source gives them in different places.

One test deals with S. aureus ATCC 29213. Nature of the test: MBC assay. It counts as cell-based, Staphylococcus aureus. Particulars: Mueller-Hinton broth pH 7.0. The text has this: (§1) (a) staphylococci. The Staphylococcus aureus strain used was ATCC 29213. S. aureus and other staphylococci are common causes of a wide range of skin, skin structure and wound infections; S. aureus is also known to exacerbate eczema. The ATCC 29213 strain is known to be susceptible to beta-lactam antibiotics such as methicillin. The Staphylococcus epidermidis strain used was NCTC 11047. Staph. epidermidis forms part of the resident flora of skin and is an opportunistic pathogen which can cause biofilms to grow for instance on plastic surgical implants such as catheters. Unless otherwise stated, the staphylococci were cultured and maintained on Mueller-Hinton Medium (agar and broth) at pH 7.2; cultures were incubated aerobically at 37° C. for 19-20 hours, at pH 7 (±0.2). (b) C. striatum NCTC 764. Corynebacterium striatum is closely related to organisms (aerobic diphtheroids of the genus Corynebacterium) that cause body odour. It was cultured and maintained on Mueller-Hinton medium (agar and broth). All cultures were incubated aerobically at 37° C. for 72 hours, at pH 7 (±0.2). (c) streptococci. The strains tested were S. mutans ATCC 25175 and S. pyogenes ATCC 12344. S. mutans is a Gram-positive, microaerophilic bacterium which plays a significant role in dental caries and in infective endocarditis. Streptococcus pyogenes is associated with skin, soft tissue, burn and wound infections. S. mutans was cultured and maintained on Wilkins-Chalgren Anaerobe medium+1 g/L glucose (agar and broth); it was incubated in air at 37° C. for 48 hours, at pH 7 (±0.2) with 5% carbon dioxide. S. pyogenes was cultured and maintained on Mueller-Hinton medium (broth and agar) and was incubated under the same conditions as S. mutans. […]
Example 8 was repeated (except for the supplemented DDA assays), using S. aureus ATCC 29213 as the test organism. […] In the DDA assays, 200 μg is of each compound was loaded onto each disc: the culture medium was Mueller-Hinton agar at pH 7.0, and results were recorded after overnight incubation at 37° C. in air. […]

The subject of test [1] is S. mutans ATCC 25175. The test can be described thus: MIC assay. It counts as cell-based, Streptococcus mutans. Particulars: Wilkins-Chalgren broth pH 7 (±0.2). As for the experimental part:
This is a standard international method for quantitatively assessing the antimicrobial activity of a compound in a liquid medium. The method used a sterile 96-well microtitre plate, capable of holding about 200 μl of liquid per well. […] The culture medium was as described above.
The wells were inoculated with a liquid suspension of freshly grown micro-organism and incubated under the conditions described above. After incubation, the microtitre plate was examined visually (with the aid of a light box) for cloudiness in each well, which would indicate microbial growth. The MIC value was recorded as the lowest concentration of test compound required to inhibit microbial growth, ie the lowest concentration for which the liquid in the well remained clear.
The assays included both negative (culture medium with no micro-organisms) and positive (culture medium plus diluting solvent plus micro-organism) controls.

Another test concerns C. striatum NCTC 764. Nature of the test: MIC assay. Particulars: triplicate. Format: cell-based, Corynebacterium striatum.
Excerpt: as §1, with “dioxide.” for “dioxide. S. pyogenes was cultured and maintained on Mueller-Hinton medium (broth and agar) and was incubated under the same conditions as S. mutans.”
This is a standard international method for quantitatively assessing the antimicrobial activity of a compound in a liquid medium. […]
The wells were inoculated with a liquid suspension of freshly grown micro-organism and incubated under the conditions described above. […] The MIC value was recorded as the lowest concentration of test compound required to inhibit microbial growth, ie the lowest concentration for which the liquid in the well remained clear. […]

The test system of test [2] is S. mutans ATCC 25175. Nature of the test: Disc diffusion assay (DDA). It counts as cell-based, Streptococcus mutans. Particulars: 200 μg per disc, 48 hours at 37° C., 5% carbon dioxide, single plates. The text has this: (a) staphylococci. The Staphylococcus aureus strain used was ATCC 29213. S. aureus and other staphylococci are common causes of a wide range of skin, skin structure and wound infections; S. aureus is also known to exacerbate eczema. The ATCC 29213 strain is known to be susceptible to beta-lactam antibiotics such as methicillin. The Staphylococcus epidermidis strain used was NCTC 11047. Staph. epidermidis forms part of the resident flora of skin and is an opportunistic pathogen which can cause biofilms to grow for instance on plastic surgical implants such as catheters. Unless otherwise stated, the staphylococci were cultured and maintained on Mueller-Hinton Medium (agar and broth) at pH 7.2; cultures were incubated aerobically at 37° C. for 19-20 hours, at pH 7 (±0.2). (b) C. striatum NCTC 764. Corynebacterium striatum is closely related to organisms (aerobic diphtheroids of the genus Corynebacterium) that cause body odour. It was cultured and maintained on Mueller-Hinton medium (agar and broth). All cultures were incubated aerobically at 37° C. for 72 hours, at pH 7 (±0.2). (c) streptococci. The strains tested were S. mutans ATCC 25175 and S. pyogenes ATCC 12344. […] The diameter of this zone of “inhibition” was measured using a ProtoCOL™ automated zone sizer (Synbiosis, Cambridge, UK). […]
(In general: A growth-free zone around the sample is the usual read-out of agar diffusion tests.)

Consider `CC(=O)c1c([O-])c(C)c([O-])c2c1OC1=CC(=O)C(C(C)=O)C(=O)C12C.[Cu+2]` (centres unmarked) [Copper usnate, copper (II) usnate], for which, in the test with S. aureus ATCC 29213, the minimal bactericidal concentration (MBC) – broadly, the lowest tested concentration that kills the bacteria rather than only halting them – was determined as 62.5 µg/mL. Moreover, the MIC (commonly the lowest concentration that inhibits growth of the organism) in the test with S. mutans ATCC 25175 [1] was found to be 1.95 µg/mL; in the test on C. striatum NCTC 764, 3.9 µg/mL. For the same compound, the DDA zone diameter with S. mutans ATCC 25175 [2] worked out at 32.4 mm.

Consider `CC(=O)c1c(O)c(C)c(O)c2c1OC1=CC(=O)C(C(C)=O)C(=O)C12C` (centres unmarked) [Usnic acid, 2,6-diacetyl-7,9-dihydroxy-8,9b-dimethyl-1,3(2H,9bh)-dibenzofurandione], for which the MBC with S. aureus ATCC 29213 (Staphylococcus aureus, ATCC29213, read-out: MBC) is 250 µg/mL (≈ 726 µM). Also, the MIC with S. mutans ATCC 25175 [1] (Streptococcus mutans, ATCC25175, read-out: MIC) was 3.9 µg/mL (≈ 11.3 µM); in the test on C. striatum NCTC 764 (Corynebacterium striatum, NCTC764, read-out: MIC) it was 7.8 µg/mL (≈ 22.7 µM). The zone of inhibition at 200 µg/disc in the test on S. mutans ATCC 25175 [2] (Streptococcus mutans, ATCC25175, read-out: DDA zone diameter) came out at 31.2 mm.
